Data set [1] can be described thus: Octan-1-ol/PBS partition coefficient. The data set is classed as physicochemical. The conditions noted are these: 200 μM, room temperature, 1 h, means±SEM of three. The procedure:
(§1) The IC50 values for inhibition of lipid peroxidation were determined in rat brain homogenates, and are means±SEM or range of determinations on 2–3 brain preparations. Octan-1-ol/PBS partition coefficients are means±SEM for three independent determinations. N.D. not determined. Partition coefficients were determined by mixing 200 μM of the compound in 2 ml water-saturated octanol-1-ol with 2 ml octanol-saturated-PBS at room temperature for 1 h, then the two layers were separated by brief centrifugation and their concentrations determined spectrophotometrically from standard curves prepared in PBS or octanol. To measure antioxidant efficacy four rat brains were homogenised in 15 ml 40 mM potassium phosphate (pH 7.4), 140 mM NaCl at 4° C., particulate matter was pelleted (1,000×g at 4° C. for 15 min) and washed once and the combined supernatants stored frozen. Aliquots were rapidly thawed and 5 mg protein suspended in 800 μl PBS containing antioxidant or ethanol carrier and incubated at 37° C. for 30 min. Thiobarbituric acid reactive species (TBARS) were quantitated at 532 nm by adding 200 μl conc. HClO4 and 200 μl 1% thiobarbituric acid to the incubation, heating at 100° C. for 15 min and then cooling and clarification by centrifugation (10,000×g for 2 min).

Data set [2] deals with rat liver mitochondria. Put plainly: Protection of mitochondria against oxidative damage (TBARS, protein carbonyls). Type of data set: biochemical. How it is done: Mitochondria were exposed to oxidative stress by incubation with iron/ascorbate and the effect of compound 1 on oxidative damage assessed by measuring TBARS (filled bars) and protein carbonyls (open bars). Rat liver mitochondria (10 mg protein) were incubated at 25° C. in a shaking water bath in 2 ml medium containing 100 mM KCl, 10 mM Tris, pH 7.7, supplemented with rotenone (1.33 μg/ml), 10 mM succinate, 500 μM ascorbate and other additions. After preincubation for 5 min, 100 μM FeSO4 was added and 45–55 min later duplicate samples were removed and assayed for TBARS or protein carbonyls.
Energised rat liver mitochondria were exposed to tert-butylhydroperoxide and the effect of compound 1 (filled bars), α-tocopherol (open bars), compound 1+333 nM FCCP (stippled bars) or the simple lipophilic cation bromobutyl triphenylphosphonium (cross hatched bars) on TBARS formation determined.

Data set [3] relates to rat liver mitochondria. Put plainly: Uptake of [3H] compound 1 by energised rat liver mitochondria.
The subject of data set [4] is 143B cells. Put plainly: Cell viability by lactate dehydrogenase release. The conditions noted are these: 24 h, LDH release, concentrations giving 2–4 mM intramitochondrial. Type of data set: cell-based, human. How it is done:
(§2) The next step was to determine whether compound 1 was accumulated by intact cells. […] A proportion of this uptake of compound 1 into cells was inhibited by blocking the plasma and mitochondrial membrane potentials (FIG. 9). This energisation-sensitive uptake corresponds to an intra mitochondrial concentration of compound 1 of about 2–4 mM, which is sufficient to protect mitochondria from oxidative damage.
Here, confluent 143B cells in 24 well tissue culture dishes were incubated with various concentrations of compound 1 for 24 h and cell viability measured by lactate dehydrogenase release.

The subject of data set [5] is rat liver mitochondria. The data set can be described thus: Effect of compound 1 on membrane potential and respiration rate of isolated mitochondria. The conditions noted are these: at the concentrations that afford protection.
Data set [6] concerns rat liver mitochondria. The data set can be described thus: Protection of mitochondrial function (membrane potential) from iron/ascorbate oxidative damage. The conditions noted are these: 5 μM, compared with Vitamin E. Type of data set: biochemical. How it is done: Energised rat liver mitochondria were incubated with iron/ascorbate with no additions (stippled bars), 5 μM compound 1 (filled bars), 5 μM α-tocopherol. (open bars) or 5 μM TPMP (cross hatched bars), and then isolated and the membrane potential generated by respiratory substrates measured relative to control incubations in the absence of iron/ascorbate. Rat liver mitochondria were incubated at 25° C. in a shaking water bath in 2 ml medium containing 100 mM KCl, 10 mM Tris, pH 7.7, supplemented with rotenone (1.33 μg/ml), 10 mM succinate, 500 μM ascorbate and other additions. […] TPMP either 10 mM glutamate and malate, 10 mM succinate and rotenone, or 5 mM ascorbate/100 μM TMPD with rotenone and myxothiazol (2 μg/ml), incubated at 25° C. for 3 min then pelleted and the membrane potential determined as above and compared with an incubation that had not been exposed to oxidative stress.

The subject of data set [7] is rat brain homogenates. The data set can be described thus: Inhibition of lipid peroxidation in rat brain homogenates (TBARS assay). The data set is classed as biochemical. The conditions noted are these: TBARS, read-out: concentration that inhibited oxidative stress by 50%. The procedure:
The rat brain homogenates were incubated with or without various concentrations of the test compounds (compound 1; native Vitamin E (α-tocopherol), bromobutyl triphenylphosphonium bromide, Trolox (a water soluble form of Vitamin E) and compound 2, ie2-(2-bromoethyl)-3,4-dihydro-2,5,7,8-tetramethyl-2H-1-benzopyran-6-ol, the precursor of compound 1 (“Brom Vit E”)) and the oxidative damage occurring over the incubation was quantitated using the TBARS assay (Stocks et al., 1974, Clin Sci Mol Med 47,215–222). From this the concentration of compound required to inhibit oxidative damage by 50% was determined. In this system 210 nM compound 1 inhibited oxidative stress by 50% while the corresponding value for native Vitamin E was 36 nM. The value for bromobutyltriphenylphosphonium bromide, which contains the triphenylphosphonium moiety but not the antioxidant Vitamin E moiety was 47 μM. […] Further details of the experimental procedures and results are set out below.
as §1

For data set [8], the system named is 143B cells. Put plainly: Uptake of compound 1 by intact cells. Type of data set: cell-based, human. How it is done: The mitochondrial specific accumulation of compound 1 also occurs in intact cells. This was measured as described by Burns and Murphy, 1997 and the accumulation was prevented by dissipating both the mitochondrial and plasma membrane potentials. […] Therefore the accumulation of compound 1 into cells is driven by the mitochondrial membrane potential.
as §2
Here 10^6 143B cells (closed symbols) or ρ° cells (open symbols) were incubated with 1 μM [3H] compound 1 and the compound 1 accumulation ratio determined. Human osteosarcoma 143B cells and a derived ρ° cell line lacking mitochondrial DNA were cultured in DMEM/10% FCS (foetal calf serum) supplemented with uridine and pyruvate under an atmosphere of 5% CO2/95% air at 37° C., grown to confluence and harvested for experiments by treatment with trypsin. To measure [^3H] compound 1 accumulation cells (10^6) were incubated in 1 ml HEPES-buffered DMEM. At the end of the incubation, cells were pelleted by centrifugation, the cell pellet and the supernatant prepared for scintillation counting and the accumulation ratio [compound 1/mg protein)/(compound 1/μl)]calculated.
Human osteosarcoma 143B cells were incubated in 1 ml HEPES-buffered DMEM with 1-50 μM compound 1 supplemented with 6–60 nCi/ml [^3H] compound 1. To determine the energistration-dependent uptake, parallel incubations with 12.5 μM oligomycin, 20 μM FCCP; 10 μM myxathiazol. 100 nM valinomycin and 1 mM ouabain were carried out. At the end of the incubation, cells were pelleted by centrifugation and prepared for scintillation counting and the energisation-sensitive uptake determined.

`Cc1c(C)c2c(c(C)c1O)CCC(C)(CC[P+](c1ccccc1)(c1ccccc1)c1ccccc1)O2` (centres unmarked) [compound 1]: in data set [1], the “Octanol:PBS partition coefficient” value is 7.37 ± 1.56. For the same compound, the “protection of mitochondria against oxidative damage (lipid peroxidation and protein carbonyl formation)” value in data set [2] (mitochondria exposed to oxidative stress) was “protected them against oxidative damage”. Further, in data set [2] (mitochondria incubated with FCCP to prevent uptake), the “antioxidant protection with uncoupler FCCP” value was “prevented”. In addition, in data set [3] (FCCP added after accumulation), the “time for reversal of accumulation by FCCP” value is recorded as below 10 s. Besides, in data set [3] (addition of FCCP), the “effect of uncoupler FCCP on accumulation into mitochondria” value was “blocked”. The “time for uptake into mitochondria” value in data set [3] (energised rat liver mitochondria) is listed as below 10 s. Also, in data set [3] (energised rat liver mitochondria, membrane potential about 180 mV), the “accumulation ratio into mitochondria” value was “about 6,000”. For the same compound, the “proportion membrane-bound within mitochondria” value in data set [3] (inferred from uptake of TPMP and compound 1 at the same membrane potential) is listed as “about 84%”. In data set [3] (isolated mitochondria, range of concentrations of compound 1 (FIG. 2)), the intramitochondrial concentration is 4 to 8 mM. Moreover, in data set [3] (range of membrane potentials, 10 μM compound 1, 1 μM TPMP, 3 min), the “slope of accumulation ratio of compound 1 relative to that of TPMP” value was 2.472. Further, the toxicity to cells result in data set [4] is on record as “not toxic to cells”. The damage to mitochondria result in data set [5] is reported as “not damaging to mitochondria”. The “protection of mitochondrial function (ability to generate a membrane potential)” value in data set [6] was “far more effectively than Vitamin E itself”. The IC50 in data set [7] was determined as 210 nM. Further, the “intra mitochondrial concentration from energisation-sensitive uptake” value in data set [8] (143B cells, 1 h incubation) fell in the range of 2 to 4 mM. For the same compound, the “accumulation by cells containing defective mitochondria” value in data set [8] (cells without mitochondrial membrane potential) was “not accumulated”. The “accumulation by intact cells” value in data set [8] (intact 143B cells) is “rapidly accumulated”.
